# Test results from BindingDB's records for doi:10.1016/j.bmcl.2009.03.008 (Roche R & D Center(China), 2009).
# Target: T1, Bile acid receptor (Homo sapiens, UniProt Q96RI1)
# T1 sequence (Q96RI1 whole entry): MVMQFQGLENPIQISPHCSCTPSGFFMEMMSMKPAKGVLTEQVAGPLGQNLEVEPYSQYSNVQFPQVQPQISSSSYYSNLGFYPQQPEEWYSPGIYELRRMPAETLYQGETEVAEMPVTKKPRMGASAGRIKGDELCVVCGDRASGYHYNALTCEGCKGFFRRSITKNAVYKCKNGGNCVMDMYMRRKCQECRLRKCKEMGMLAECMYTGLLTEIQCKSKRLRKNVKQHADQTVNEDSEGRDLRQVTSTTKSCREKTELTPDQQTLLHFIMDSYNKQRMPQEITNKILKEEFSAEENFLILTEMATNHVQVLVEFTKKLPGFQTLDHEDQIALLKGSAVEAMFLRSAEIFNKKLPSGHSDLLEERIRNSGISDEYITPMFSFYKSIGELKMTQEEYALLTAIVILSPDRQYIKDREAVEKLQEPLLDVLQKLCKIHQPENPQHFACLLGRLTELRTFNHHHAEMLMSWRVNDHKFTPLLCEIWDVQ
# Assay: Scintillation Proximity Assay
# Settings: pH 8; 22 °C
# Procedure: Binding affinity (IC50) was evaluated using scintillation proximity assay with radiolabeled ligand and biotinylated receptor. Because the scintillant is contained within the SPA bead, only radiolabel that is attached to the bead is detected. The receptor-ligand complex is bound to the bead through interaction between the biotinylated receptor and the streptavidin moiety located on the surface of the bead.
Compound,IC50 [µM],EC50 [µM]
"Cc1cc(OCc2c(-c3c(Cl)cn(C)c(=O)c3Cl)noc2C(C)Cl)ccc1-c1ccc2c(C(=O)O)cn(C)c2c1 (centres undefined) [3-aryl isoxazole analog, 7e]",4.17,–
"COc1ccc(Cl)c(-c2noc(C(C)Cl)c2COc2ccc(-c3ccc4c(C(=O)O)cn(C)c4c3)c(C)c2)n1 (centres undefined) [3-aryl isoxazole analog, 7g]",0.75,2
"Cc1cc(OCc2c(-c3c(Cl)c[n+]([O-])cc3Cl)noc2C(C)Cl)ccc1-c1ccc2c(C(=O)O)cn(C)c2c1 (centres undefined) [3-aryl isoxazole analog, 7b]",0.045,–
"Cc1cc(OCc2c(-c3ccn(C)c(=O)c3Cl)noc2C(C)Cl)ccc1-c1ccc2c(C(=O)O)cn(C)c2c1 (centres undefined) [3-aryl isoxazole analog, 7d]",7.33,7

# The next lines start with the values.
IC50 [µM],EC50 [µM],Compound
5.16,–,"Cc1cc(OCc2c(-c3[nH]c(=O)ccc3Cl)noc2C(C)Cl)ccc1-c1ccc2c(C(=O)O)cn(C)c2c1 (centres undefined) [3-aryl isoxazole analog, 7h]"
1.1,–,"Cc1cc(OCc2c(-c3cc[nH]c(=O)c3Cl)noc2C(C)Cl)ccc1-c1ccc2c(C(=O)O)cn(C)c2c1 (centres undefined) [3-aryl isoxazole analog, 7c]"
0.88,–,"Cc1cc(OCc2c(-c3c(Cl)ccc(=O)n3C)noc2C(C)Cl)ccc1-c1ccc2c(C(=O)O)cn(C)c2c1 (centres undefined) [3-aryl isoxazole analog, 7f]"
